Measurements as given in patent publication US10433548B2, “Biocidal compositions comprising iron chelators” (Arch Chemicals, Inc., priority 2012, dated 2019).
Values after ≈ are worked out from the molar mass of the structure shown. Like-named read-outs stand apart in the source and are kept apart here.

Assays:
[1] = system: E. coli; assay: Minimum Inhibitory Concentration (MIC) test, 96-well microtiter plate; format: cell-based; settings: Active ZPT alone or plus chelator or chelator + Zn(II); Molar Ratio HBED 10×, 8-HQ 5×, 8-HQ + Zn(II) 1×, 2-HPNO 10×
Description: (§1) Activities of antimicrobial compositions of the present invention were tested against a range of typical skin microorganisms in a Minimum Inhibitory Concentration (MIC) test. MICs for the organisms were determined in a standard 96-well microtiter plate assay in Brain Heart Infusion Broth (BHI) for P. acnes; Tryptic Soy Broth (TSB) for the remaining bacteria; Ushijima Broth for M. furfur; Sabouraud Dextrose Broth (SDB) for other fungi. Samples were tested in duplicate on separate plates. For bacteria and fungi plates, samples were serially diluted into double strength media on the microtiter plates. The bacterial or fungal inocula, suspended in sterile deionized water, were then added to the wells in 1:1 ratio to the medium. The final concentration of bacteria in the wells was 5×10^5 CFUs/mL, the final concentration of fungi was 5×10^4 cells or spores/mL. Plates were incubated: anaerobically at 35° C. for 7 days for P. acnes; aerobically at 35° C. for 2 days for the remaining bacteria and aerobically at 35° C. for 7 days for M. furfur; aerobically at 28° C. for 7 days for T. mentagrophytes.

[2] = system: P. acnes; assay: as above; format: cell-based; settings: for MIC: Cutibacterium acnes
Description: as §1

[3] = system: S. aureus; assay: Time-kill test (microbial reduction); format: cell-based; settings: for log reduction: from initial microbial population
Description: (§2) Time-kill test were performed to assess microbial reduction by antimicrobial agents, with and without chelators, against S. aureus, P. aeruginosa, and E. coli.
(§3) 100 μL of sample and 100 μL of bacterial suspension at 5×10^5 cells/mL was loaded into the first well of each row in a 96-well plate, mixed and after specific contact time, 10-fold serial dilutions were made using a multichannel pipette by transferring 20 μL into 180 μL of Letheen broth, mixing 10 times. The process was repeated. Thereafter, three replicates of 10 μL from each of the six selected dilutions were plated onto Tryptic Soy Agar using a 2-20 μL monochannel pipette. Plates were allowed to dry, then placed into an incubator at 35° C. for 24 hrs. Colonies (0.5-1 mm) were enumerated using a colony counter.

[4] = system: P. aeruginosa; assay: Time-kill test (microbial reduction); format: cell-based; settings: for log reduction: from initial microbial population
Description: as §2, §3

[5] = system: E. coli; assay: Time-kill test (microbial reduction); format: cell-based; settings: E. coil; for log reduction: from initial microbial population
Description: as §2, §3

[6] = system: P. aeruginosa; assay: Minimum Inhibitory Concentration (MIC) test, 96-well microtiter plate; format: cell-based; set-up: unit not given here
Description: as §1

[7] = system: T. mentagrophytes; assay: as above; format: cell-based; set-up: unit not given here
Description: as §1

[8] = system: S. epidermidis; assay: as above; format: cell-based; set-up: unit not given here
Description: as §1

[9] = system: M. furfur; assay: as above; format: cell-based; set-up: unit not given here
Description: as §1

[10] = system: C. pyrenoidosa; assay: as above; format: cell-based; set-up: unit not given here
[11] = system: R. subcapitata; assay: as above; format: cell-based; set-up: unit not given here
[12] = system: A. brasiliensis; assay: as above; format: cell-based; set-up: unit not given here
Description: as §1

[13] = system: C. albicans; assay: as above; format: cell-based; set-up: unit not given here; settings: concentration of ZPT; ZPT alone or with potentiator, Molar Eq (Pot:ZPT) 10:1, 8-HQ-Zn 1:1
Description: as §1

[14] = system: P. faveolarum; assay: as above; format: cell-based; set-up: unit not given here
Description: as §1

[15] = system: B. subtilis; assay: as above; format: cell-based; set-up: unit not given here
Description: as §1

[16] = system: A. pullulans; assay: as above; format: cell-based; set-up: unit not given here; settings: concentration of BIT; BIT alone or with potentiator, Molar Eq (Pot:BIT) 10:1
Description: as §1

[17] = system: S. aureus, P. aeruginosa, and E. coli; settings: in combination with ZPT
Description: as §2, §3

[18] = Active ZPT alone or plus chelator or chelator + Zn(II), Molar Ratio HBED 10×, 8-HQ 5×, 8-HQ + Zn(II) 1×, 2-HPNO 10×
[19] = concentration of ZPT, ZPT alone or with potentiator, Molar Eq (Pot:ZPT) 10:1, 8-HQ-Zn 1:1
[20] = concentration of BIT, BIT alone or with potentiator, Molar Eq (Pot:BIT) 10:1

| SMILES | MIC E. Coli [1] | CFU ([3]; 4 hr contact) | log reduction ([3]; 4 hr contact) [log] | CFU ([3]; 8 hr contact) | log reduction ([3]; 8 hr contact) [log] | CFU ([4]; 4 hr contact) | log reduction ([4]; 4 hr contact) [log] | CFU ([4]; 8 hr contact) | log reduction ([4]; 8 hr contact) [log] | CFU ([5]; 4 hr contact) | log reduction ([5]; 4 hr contact) [log] | CFU ([5]; 8 hr contact) | log reduction ([5]; 8 hr contact) [log] | MIC P. aeruginosa [6, 18] | MIC T. mentagrophytes [7, 18] | MIC S. epidermidis [8, 18] | MIC M. furfur [9, 18] | other results |
| --- | --- | --- | --- | --- | --- | --- | --- | --- | --- | --- | --- | --- | --- | --- | --- | --- | --- | --- |
| Oc1cccc2cccnc12 [8-HQ, 8-hydroxyquinoline] | 7.81 | 1.6 × 10^5 CFUs/mL | 1 | 6.3 × 10^5 CFUs/mL | 2 | 2.6 × 10^6 CFUs/mL | 1 | 3 × 10^5 CFUs/mL | 3 | 8.6 × 10^5 CFUs/mL | 2 | 1.2 × 10^6 CFUs/mL | 2 | 125 | 7.81 | 0.49 | 1.95 | MIC ([2]; read-out: MIC values against P. acnes, Benzoyl Peroxide): 0.78 µg/mL (≈ 5.37 µM); MIC ([2]; read-out: MIC values against P. acnes, Salicylic Acid): 0.78 µg/mL (≈ 5.37 µM) |
| Oc1cccc2cccnc12.[Zn] [8-HQ-Zn, 8-hydroxyquinoline zinc salt] | 7.81 | – | – | – | – | – | – | – | – | – | – | – | – | 31.5 | 3.91 | 1.95 | 1.95 | MIC C. pyrenoidsa [10, 19]: 0.73; MIC R. subcapitata [11, 19]: 1.95; MIC P. aeruginosa [6, 19]: 31.25; MIC A. brasiliensis [12, 19]: 15.63; MIC T. mentagrophytes [7, 19]: 3.91; MIC S. epidermidis [8, 19]: 1.95; MIC M. furfur [9, 19]: 1.95; MIC C. albicans [13]: 7.81; MIC P. faveolarum [14, 19]: 0.24; MIC B. subtilis [15, 19]: 0.98 |
| O=C(O)CN(CCN(CC(=O)O)Cc1ccccc1O)Cc1ccccc1O [HBED, N,N-bis(2-hydroxybenzyl)ethylenediamine-N,N-diacetic acid] | 15.63 | 1.4 × 10^6 CFUs/mL | 1 | 2.3 × 10^5 CFUs/mL | 2 | >10^7 CFUs/mL | 0 | 1.6 × 10^5 CFUs/mL | 3 | 8.3 × 10^5 CFUs/mL | 2 | 1.6 × 10^6 CFUs/mL | 2 | 62.5 | 0.49 | 0.98 | 3.91 | MIC C. pyrenoidsa [10, 20]: 2.03; MIC R. subcapitata [11, 20]: 4.06; MIC values against P. acnes, Benzoyl Peroxide ([2]; Benzoyl Peroxide without chelator or with chelator, Molar Eq. HBED 10×, 8-HQ 5×, DTPA 10×, Desferrioxamine 1×): 3.13 ppm; MIC values against P. acnes, Salicylic Acid ([2]; Salicylic Acid without chelator or with chelator, Molar Eq. HBED 10×, 8-HQ 5×, DTPA 10×, Desferrioxamine 1×): 3.13 ppm; MIC A. pullulans [16]: 4.06; MIC P. aeruginosa [6, 20]: 8.13; MIC A. brasiliensis [12, 20]: 32.50; MIC P. faveolarum [14, 20]: 4.06; MIC B. subtilis [15, 20]: 0.51; ranking of chelators in time-kill studies [17]: best chelator |
